Data published in patent US11519834B2, “In vitro intestinal drug disposition device” (Enphasys AB, priority 2017, dated 2022).
Like-named read-outs stand apart in the source and are kept apart here.

Assays:
[1] = compared with micronized (ball-milled) danazol, FIG. 7
Caco-2 cells [2] = assay: Permeation across Caco-2 monolayers in 12-well Transwell plate; format: in vitro ADME, human; details: Caco-2 monolayer, 1.12 cm^2, 10 μM lucifer yellow
Description: (§1) The buffer was spiked with 10 μM lucifer yellow, which was used as a paracellular marker to check monolayer integrity. HBSS containing 4% bovine albumin serum was used in the receiver compartment to ensure sink conditions.
Caco-2 cells were grown on inserts in 12-well Transwell plates (surface area 1.12 cm^2). Transwell plates are typically used for in vitro absorption studies. The experiment was performed at 37° C. at 500 rpm with 400 μl of buffer at the donor and 1.2 ml of buffer at the receiver side.

Caco-2 cells [3] = system: Caco-2 cells
Description: as §1
Caco-2 cells were grown on Transwell inserts (diameter […]) and mounted in the device resulting in a surface area of 28.27 cm^2. The receiver compartment contained 180 ml and the donor 60 ml. A magnetic stirrer was used to mix the buffer in the receiver compartment and a stirrer propeller to mix the buffer in the donor compartment.

Caco-2 cells [4] = assay: Permeation across Caco-2 monolayers in μFlux; format: in vitro ADME, human; details: Caco-2 monolayer, 0.78 cm^2, 10 μM lucifer yellow
Description: HBSS containing 4% bovine albumin serum was used in the receiver compartment to ensure sink conditions. […] Donor and receiver compartments were kept at 37° C. and typically contained 15 ml of buffer. Caco-2 cells were grown in Transwell plates and placed between the compartments resulting in a surface of 0.78 cm^2. Magnetic stirring was used for mixing in both the donor and receiver compartment. The μDISS profiler allowed in situ concentration monitoring with fiber optic probes.

| absorption [1] | Lucifer yellow Papp (Caco-2 cells [2]) | Lucifer yellow Papp (Caco-2 cells [3]) | Lucifer yellow Papp (Caco-2 cells [4]) | Compound |
| --- | --- | --- | --- | --- |
| much lower absorption |  |  |  | C#C[C@]1(O)CC[C@H]2[C@@H]3CCC4=Cc5oncc5C[C@]4(C)[C@H]3CC[C@@]21C [Unprocessed crystalline danazol, danazol] |
|  | 1 ×10⁻⁶ cm/s | 2.19 ×10⁻⁶ cm/s | 39.37 ×10⁻⁶ cm/s | lucifer yellow |
